Laboratory results published in PMC6109843, “Novel Quinazolinone Inhibitors of ALK2 Flip between Alternate Binding Modes: Structure–Activity Relationship, Structural Characterization, Kinase Profiling, and Cellular Proof of Concept” (Journal of Medicinal Chemistry, 2018).

Assays:
Experiment in all cases: DiscoverX scanEDGE kinase panel
Format in all cases: binding
Conditions in all cases: Cmpd Conc 1000 nM, read-out: % Ctrl
[1] = molecular target: T1, RSK2(Kin.Dom.1ENEterminal) (Homo sapiens, UniProt P51812)
T1 construct: RSK2(Kin.Dom.1ENEterminal); purchased DiscoverX (DiscoveRx) KINOMEscan scanEDGE / KdELECT
Source text: (§1) We hypothesized that inhibitors of the normal and flipped modes would display distinct selectivity profiles.
(§2) 1. 16 and 21 kinome selectivity data
(§3) (P – phosphorylated; nP – nonphosphorylated; % Ctrl values show the % of DNAEtagged
(§4) kinase which was not displaced from a solid supported ligand by a test compound relative to
(§5) untreated control, quantified by qPCR).
(§6) Please note: ALKs 1, 2, 3, 4, 5 and 6 are listed by their gene symbols: ACVRL1 (ALK1), ACVR1
(§7) (ALK2), BMPR1A (ALK3), ACVR1B (ALK4), TGFBR1 (ALK5) and BMPR1B (ALK6)
(§8) Cmpd DiscoverX Gene Symbol Entrez Gene Symbol % Ctrl Cmpd Conc (nM)

PDGFRB = molecular target: T2, PDGFRB (Homo sapiens, UniProt P09619)
T2 construct: purchased DiscoverX (DiscoveRx) KINOMEscan scanEDGE / KdELECT
Source text: as §1, §2, §3, §4, §5, §6, §7, §8

ABL2 = molecular target: T3, ABL2 (Homo sapiens, UniProt P42684)
T3 construct: purchased DiscoverX (DiscoveRx) KINOMEscan scanEDGE / KdELECT
T3 sequence (P42684 whole entry): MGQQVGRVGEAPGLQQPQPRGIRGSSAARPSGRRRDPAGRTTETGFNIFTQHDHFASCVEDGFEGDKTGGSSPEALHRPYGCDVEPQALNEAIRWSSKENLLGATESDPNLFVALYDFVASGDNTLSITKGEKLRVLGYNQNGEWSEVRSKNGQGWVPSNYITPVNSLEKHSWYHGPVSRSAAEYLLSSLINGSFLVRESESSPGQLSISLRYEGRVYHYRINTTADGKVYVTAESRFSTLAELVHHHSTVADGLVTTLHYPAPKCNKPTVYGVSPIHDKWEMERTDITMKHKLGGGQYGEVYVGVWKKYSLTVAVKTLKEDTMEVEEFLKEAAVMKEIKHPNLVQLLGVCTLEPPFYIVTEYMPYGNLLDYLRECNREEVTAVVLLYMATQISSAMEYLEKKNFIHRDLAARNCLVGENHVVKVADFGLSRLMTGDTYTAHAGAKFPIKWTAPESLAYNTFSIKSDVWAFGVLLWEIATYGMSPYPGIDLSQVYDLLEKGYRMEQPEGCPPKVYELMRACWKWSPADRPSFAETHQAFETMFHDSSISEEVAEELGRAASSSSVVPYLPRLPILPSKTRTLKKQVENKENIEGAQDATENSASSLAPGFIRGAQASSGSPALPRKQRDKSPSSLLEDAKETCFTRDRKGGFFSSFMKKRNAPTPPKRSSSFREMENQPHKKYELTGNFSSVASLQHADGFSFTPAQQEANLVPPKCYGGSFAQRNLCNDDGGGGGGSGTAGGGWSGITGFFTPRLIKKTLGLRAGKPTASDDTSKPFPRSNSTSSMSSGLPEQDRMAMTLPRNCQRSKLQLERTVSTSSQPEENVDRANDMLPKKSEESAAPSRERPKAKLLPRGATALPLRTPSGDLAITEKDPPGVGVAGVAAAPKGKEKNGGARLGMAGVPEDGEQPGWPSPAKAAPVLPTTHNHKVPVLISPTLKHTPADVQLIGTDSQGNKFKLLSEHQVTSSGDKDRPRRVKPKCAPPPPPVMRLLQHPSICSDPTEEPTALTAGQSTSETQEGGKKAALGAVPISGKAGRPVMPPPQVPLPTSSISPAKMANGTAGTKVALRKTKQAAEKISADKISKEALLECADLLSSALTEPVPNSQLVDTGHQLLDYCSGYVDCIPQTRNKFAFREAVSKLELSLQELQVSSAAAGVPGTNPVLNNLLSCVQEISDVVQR
Source text: as §1, §2, §3, §4, §5, §6, §7, §8

AXL = molecular target: T4, AXL (Homo sapiens, UniProt P30530)
T4 construct: purchased DiscoverX (DiscoveRx) KINOMEscan scanEDGE / KdELECT
Source text: as §1, §2, §3, §4, §5, §6, §7, §8

CSNK1D = molecular target: T5, CSNK1D (Homo sapiens, UniProt P48730)
T5 construct: purchased DiscoverX (DiscoveRx) KINOMEscan scanEDGE / KdELECT
Source text: as §1, §2, §3, §4, §5, §6, §7, §8

MKNK1 = molecular target: T6, MKNK1 (Homo sapiens, UniProt Q9BUB5)
T6 construct: purchased DiscoverX (DiscoveRx) KINOMEscan scanEDGE / KdELECT
Source text: as §1, §2, §3, §4, §5, §6, §7, §8

PLK4 = molecular target: T7, PLK4 (Homo sapiens, UniProt O00444)
T7 construct: purchased DiscoverX (DiscoveRx) KINOMEscan scanEDGE / KdELECT
Source text: as §1, §2, §3, §4, §5, §6, §7, §8

BTK = molecular target: T8, BTK (Homo sapiens, UniProt Q06187)
T8 construct: purchased DiscoverX (DiscoveRx) KINOMEscan scanEDGE / KdELECT
Source text: as §1, §2, §3, §4, §5, §6, §7, §8

NEK6 = molecular target: T9, NEK6 (Homo sapiens, UniProt Q9HC98)
T9 construct: purchased DiscoverX (DiscoveRx) KINOMEscan scanEDGE / KdELECT
Source text: as §1, §2, §3, §4, §5, §6, §7, §8

YANK3 = molecular target: T10, YANK3 (Homo sapiens, UniProt Q86UX6)
T10 construct: purchased DiscoverX (DiscoveRx) KINOMEscan scanEDGE / KdELECT
Source text: as §1, §2, §3, §4, §5, §6, §7, §8

ERBB2 = molecular target: T11, ERBB2 (Homo sapiens, UniProt P04626)
T11 construct: purchased DiscoverX (DiscoveRx) KINOMEscan scanEDGE / KdELECT
Source text: as §1, §2, §3, §4, §5, §6, §7, §8

KIT(V559D,T670I) = molecular target: T12, KIT(V559D,T670I) (Homo sapiens, UniProt P10721, T670I/V559D)
T12 construct: purchased DiscoverX (DiscoveRx) KINOMEscan scanEDGE / KdELECT
T12 sequence (P10721 26-976 V559D/T670I): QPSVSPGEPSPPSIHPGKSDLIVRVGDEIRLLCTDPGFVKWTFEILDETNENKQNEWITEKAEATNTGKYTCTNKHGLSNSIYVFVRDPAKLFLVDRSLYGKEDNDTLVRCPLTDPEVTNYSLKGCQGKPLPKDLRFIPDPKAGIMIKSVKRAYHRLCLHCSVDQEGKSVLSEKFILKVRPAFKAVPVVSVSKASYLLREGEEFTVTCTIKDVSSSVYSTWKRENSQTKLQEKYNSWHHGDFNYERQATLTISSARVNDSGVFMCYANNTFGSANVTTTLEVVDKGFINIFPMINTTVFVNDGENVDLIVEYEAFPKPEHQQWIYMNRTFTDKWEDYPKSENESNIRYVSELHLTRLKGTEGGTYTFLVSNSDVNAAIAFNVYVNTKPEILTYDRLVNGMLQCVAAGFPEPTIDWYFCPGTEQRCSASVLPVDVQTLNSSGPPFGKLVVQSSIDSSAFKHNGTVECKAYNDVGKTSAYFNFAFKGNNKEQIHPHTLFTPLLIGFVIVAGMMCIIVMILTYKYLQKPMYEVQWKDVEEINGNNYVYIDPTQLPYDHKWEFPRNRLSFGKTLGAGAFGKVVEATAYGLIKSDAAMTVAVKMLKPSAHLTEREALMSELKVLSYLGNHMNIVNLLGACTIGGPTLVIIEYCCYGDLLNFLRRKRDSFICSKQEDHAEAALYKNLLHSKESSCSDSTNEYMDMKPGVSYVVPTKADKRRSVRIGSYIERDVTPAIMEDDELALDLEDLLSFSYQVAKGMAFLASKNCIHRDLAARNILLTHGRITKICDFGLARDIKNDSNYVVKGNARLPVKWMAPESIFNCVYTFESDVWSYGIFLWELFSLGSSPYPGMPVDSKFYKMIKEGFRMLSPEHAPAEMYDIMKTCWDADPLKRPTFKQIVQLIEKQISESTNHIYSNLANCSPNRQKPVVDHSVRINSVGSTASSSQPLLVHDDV
Source text: as §1, §2, §3, §4, §5, §6, §7, §8

CDK9 = molecular target: T13, CDK9 (Homo sapiens, UniProt P50750)
T13 construct: purchased DiscoverX (DiscoveRx) KINOMEscan scanEDGE / KdELECT
Source text: as §1, §2, §3, §4, §5, §6, §7, §8

FAK = molecular target: T14, FAK (Homo sapiens, UniProt Q05397)
T14 construct: purchased DiscoverX (DiscoveRx) KINOMEscan scanEDGE / KdELECT
Source text: as §1, §2, §3, §4, §5, §6, §7, §8

MAPKAPK2 = molecular target: T15, MAPKAPK2 (Homo sapiens, UniProt P49137)
T15 construct: purchased DiscoverX (DiscoveRx) KINOMEscan scanEDGE / KdELECT
Source text: as §1, §2, §3, §4, §5, §6, §7, §8

TIE2 = molecular target: T16, TIE2 (Homo sapiens, UniProt Q02763)
T16 construct: purchased DiscoverX (DiscoveRx) KINOMEscan scanEDGE / KdELECT
Source text: as §1, §2, §3, §4, §5, §6, §7, §8

PLK1 = molecular target: T17, PLK1 (Homo sapiens, UniProt P53350)
T17 construct: purchased DiscoverX (DiscoveRx) KINOMEscan scanEDGE / KdELECT
Source text: as §1, §2, §3, §4, §5, §6, §7, §8

AKT1 = molecular target: T18, AKT1 (Homo sapiens, UniProt P31749)
T18 construct: purchased DiscoverX (DiscoveRx) KINOMEscan scanEDGE / KdELECT
Source text: as §1, §2, §3, §4, §5, §6, §7, §8

PIM2 = molecular target: T19, PIM2 (Homo sapiens, UniProt Q9P1W9)
T19 construct: purchased DiscoverX (DiscoveRx) KINOMEscan scanEDGE / KdELECT
Source text: as §1, §2, §3, §4, §5, §6, §7, §8

DYRK1B = molecular target: T20, DYRK1B (Homo sapiens, UniProt Q9Y463)
T20 construct: purchased DiscoverX (DiscoveRx) KINOMEscan scanEDGE / KdELECT
T20 sequence (Q9Y463 whole entry): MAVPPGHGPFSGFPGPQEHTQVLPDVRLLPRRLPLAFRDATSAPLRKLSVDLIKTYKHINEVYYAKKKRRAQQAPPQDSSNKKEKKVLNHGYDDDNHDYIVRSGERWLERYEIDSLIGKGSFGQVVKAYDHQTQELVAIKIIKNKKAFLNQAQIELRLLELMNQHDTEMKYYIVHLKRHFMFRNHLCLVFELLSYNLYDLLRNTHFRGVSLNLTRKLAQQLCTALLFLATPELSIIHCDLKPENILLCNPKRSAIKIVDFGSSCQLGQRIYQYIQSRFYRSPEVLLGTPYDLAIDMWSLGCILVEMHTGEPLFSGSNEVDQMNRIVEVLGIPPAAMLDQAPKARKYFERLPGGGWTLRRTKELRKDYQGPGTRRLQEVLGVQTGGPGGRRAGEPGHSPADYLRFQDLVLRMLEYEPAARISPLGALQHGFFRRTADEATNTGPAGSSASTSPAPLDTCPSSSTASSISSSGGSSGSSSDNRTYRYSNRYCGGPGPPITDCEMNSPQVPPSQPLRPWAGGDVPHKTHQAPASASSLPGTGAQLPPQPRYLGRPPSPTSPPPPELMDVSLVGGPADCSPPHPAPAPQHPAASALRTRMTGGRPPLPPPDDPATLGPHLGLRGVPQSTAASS
Source text: as §1, §2, §3, §4, §5, §6, §7, §8

SRPK3 = molecular target: T21, SRPK3 (Homo sapiens, UniProt Q9UPE1)
T21 construct: purchased DiscoverX (DiscoveRx) KINOMEscan scanEDGE / KdELECT
Source text: as §1, §2, §3, §4, §5, §6, §7, §8

FYN = molecular target: T22, FYN (Homo sapiens, UniProt P06241)
T22 construct: purchased DiscoverX (DiscoveRx) KINOMEscan scanEDGE / KdELECT
Source text: as §1, §2, §3, §4, §5, §6, §7, §8

ZAP70 = molecular target: T23, ZAP70 (Homo sapiens, UniProt P43403)
T23 construct: purchased DiscoverX (DiscoveRx) KINOMEscan scanEDGE / KdELECT
Source text: as §1, §2, §3, §4, §5, §6, §7, §8

GSK3B = molecular target: T24, GSK3B (Homo sapiens, UniProt P49841)
T24 construct: purchased DiscoverX (DiscoveRx) KINOMEscan scanEDGE / KdELECT
Source text: as §1, §2, §3, §4, §5, §6, §7, §8

PKACEalpha = molecular target: T25, PKACEalpha (Homo sapiens, UniProt P17612)
T25 construct: purchased DiscoverX (DiscoveRx) KINOMEscan scanEDGE / KdELECT
Source text: as §1, §2, §3, §4, §5, §6, §7, §8

AURKA = molecular target: T26, AURKA (Homo sapiens, UniProt O14965)
T26 construct: purchased DiscoverX (DiscoveRx) KINOMEscan scanEDGE / KdELECT
T26 sequence (O14965 whole entry): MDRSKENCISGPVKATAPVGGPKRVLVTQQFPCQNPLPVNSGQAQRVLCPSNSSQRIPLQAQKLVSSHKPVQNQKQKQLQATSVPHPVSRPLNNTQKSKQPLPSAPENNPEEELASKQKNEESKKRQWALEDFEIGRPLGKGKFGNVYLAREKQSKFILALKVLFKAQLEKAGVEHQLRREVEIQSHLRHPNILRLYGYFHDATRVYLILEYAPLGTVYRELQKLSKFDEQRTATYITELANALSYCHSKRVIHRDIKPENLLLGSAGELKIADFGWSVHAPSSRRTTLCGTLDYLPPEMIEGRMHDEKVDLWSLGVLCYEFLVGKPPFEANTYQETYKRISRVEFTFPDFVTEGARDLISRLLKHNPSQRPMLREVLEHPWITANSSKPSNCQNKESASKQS
Source text: as §1, §2, §3, §4, §5, §6, §7, §8

ERBB4 = molecular target: T27, ERBB4 (Homo sapiens, UniProt Q15303)
T27 construct: purchased DiscoverX (DiscoveRx) KINOMEscan scanEDGE / KdELECT
Source text: as §1, §2, §3, §4, §5, §6, §7, §8

SIK2 = molecular target: T28, SIK2 (Homo sapiens, UniProt Q9H0K1)
T28 construct: purchased DiscoverX (DiscoveRx) KINOMEscan scanEDGE / KdELECT
T28 sequence (Q9H0K1 whole entry): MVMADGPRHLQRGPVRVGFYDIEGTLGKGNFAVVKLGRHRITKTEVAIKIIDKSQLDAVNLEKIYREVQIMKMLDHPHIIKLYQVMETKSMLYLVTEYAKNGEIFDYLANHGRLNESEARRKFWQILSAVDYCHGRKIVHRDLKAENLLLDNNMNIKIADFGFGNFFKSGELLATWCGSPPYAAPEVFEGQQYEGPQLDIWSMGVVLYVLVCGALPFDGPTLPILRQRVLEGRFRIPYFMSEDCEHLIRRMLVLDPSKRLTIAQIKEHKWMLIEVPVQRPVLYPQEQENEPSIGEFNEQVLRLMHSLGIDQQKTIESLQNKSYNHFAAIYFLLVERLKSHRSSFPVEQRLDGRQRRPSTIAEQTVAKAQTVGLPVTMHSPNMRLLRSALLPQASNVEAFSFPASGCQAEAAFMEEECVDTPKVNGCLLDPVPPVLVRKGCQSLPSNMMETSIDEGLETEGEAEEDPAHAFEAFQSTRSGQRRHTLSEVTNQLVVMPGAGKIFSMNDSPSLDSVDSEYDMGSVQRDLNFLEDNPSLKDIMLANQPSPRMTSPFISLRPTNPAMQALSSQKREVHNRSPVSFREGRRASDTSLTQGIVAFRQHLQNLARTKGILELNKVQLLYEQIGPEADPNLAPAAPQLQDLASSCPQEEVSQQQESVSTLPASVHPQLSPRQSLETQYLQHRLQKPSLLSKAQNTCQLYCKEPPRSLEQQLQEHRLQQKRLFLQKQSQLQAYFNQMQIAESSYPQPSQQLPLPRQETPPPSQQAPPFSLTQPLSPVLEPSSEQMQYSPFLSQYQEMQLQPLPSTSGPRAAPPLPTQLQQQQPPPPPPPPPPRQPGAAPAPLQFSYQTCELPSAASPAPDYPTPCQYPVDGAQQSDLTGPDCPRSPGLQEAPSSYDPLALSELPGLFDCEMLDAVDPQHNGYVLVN
Source text: as §1, §2, §3, §4, §5, §6, §7, §8

ERK1 = molecular target: T29, ERK1 (Homo sapiens, UniProt P27361)
T29 construct: purchased DiscoverX (DiscoveRx) KINOMEscan scanEDGE / KdELECT
T29 sequence (P27361 whole entry): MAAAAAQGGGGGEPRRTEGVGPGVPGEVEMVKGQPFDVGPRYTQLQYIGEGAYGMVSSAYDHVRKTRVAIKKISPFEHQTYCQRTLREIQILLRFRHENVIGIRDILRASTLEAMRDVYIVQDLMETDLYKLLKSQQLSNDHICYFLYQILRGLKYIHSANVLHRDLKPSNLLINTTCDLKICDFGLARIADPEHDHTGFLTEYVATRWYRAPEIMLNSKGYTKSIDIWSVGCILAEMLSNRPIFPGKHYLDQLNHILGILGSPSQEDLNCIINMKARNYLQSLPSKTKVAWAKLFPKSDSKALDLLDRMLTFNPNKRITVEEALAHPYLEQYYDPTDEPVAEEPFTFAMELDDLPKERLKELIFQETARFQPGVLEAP
Source text: as §1, §2, §3, §4, §5, §6, §7, §8

PRKCE = molecular target: T30, PRKCE (Homo sapiens, UniProt Q02156)
T30 construct: purchased DiscoverX (DiscoveRx) KINOMEscan scanEDGE / KdELECT
Source text: as §1, §2, §3, §4, §5, §6, §7, §8

PDPK1 = molecular target: T31, PDPK1 (Homo sapiens, UniProt O15530)
T31 construct: purchased DiscoverX (DiscoveRx) KINOMEscan scanEDGE / KdELECT
Source text: as §1, §2, §3, §4, §5, §6, §7, §8

ABL1(E255K)EP = molecular target: T32, ABL1(E255K)EP (Homo sapiens, UniProt P00519, E255K)
T32 construct: purchased DiscoverX (DiscoveRx) KINOMEscan scanEDGE / KdELECT
Source text: as §1, §2, §3, §4, §5, §6, §7, §8

LCK = molecular target: T33, LCK (Homo sapiens, UniProt P06239)
T33 construct: purchased DiscoverX (DiscoveRx) KINOMEscan scanEDGE / KdELECT
Source text: as §1, §2, §3, §4, §5, §6, §7, §8

JAK3(JH1domain) = molecular target: T34, JAK3(JH1domain) (Homo sapiens, UniProt P52333)
T34 construct: JAK3(JH1domain); purchased DiscoverX (DiscoveRx) KINOMEscan scanEDGE / KdELECT
Source text: as §1, §2, §3, §4, §5, §6, §7, §8

TGFBR1 (ALK5) = molecular target: T35, TGFBR1 (ALK5) (Homo sapiens, UniProt P36897)
T35 construct: purchased DiscoverX (DiscoveRx) KINOMEscan scanEDGE / KdELECT
Source text: as §1, §2, §3, §4, §5, §6, §7, §8

MINK = molecular target: T36, MINK (Homo sapiens, UniProt Q8N4C8)
T36 construct: purchased DiscoverX (DiscoveRx) KINOMEscan scanEDGE / KdELECT
Source text: as §1, §2, §3, §4, §5, §6, §7, §8

CDK7 = molecular target: T37, CDK7 (Homo sapiens, UniProt P50613)
T37 construct: purchased DiscoverX (DiscoveRx) KINOMEscan scanEDGE / KdELECT
T37 sequence (P50613 whole entry): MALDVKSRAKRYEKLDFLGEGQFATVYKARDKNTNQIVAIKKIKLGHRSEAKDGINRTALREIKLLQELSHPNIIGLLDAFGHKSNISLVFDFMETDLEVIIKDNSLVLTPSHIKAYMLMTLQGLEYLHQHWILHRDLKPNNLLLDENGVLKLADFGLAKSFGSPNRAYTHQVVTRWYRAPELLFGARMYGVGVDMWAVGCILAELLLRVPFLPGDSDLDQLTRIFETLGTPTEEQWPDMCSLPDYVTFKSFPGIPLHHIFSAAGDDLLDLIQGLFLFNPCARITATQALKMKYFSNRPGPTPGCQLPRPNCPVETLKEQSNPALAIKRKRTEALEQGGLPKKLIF
Source text: as §1, §2, §3, §4, §5, §6, §7, §8

KIT = molecular target: T38, KIT (Homo sapiens, UniProt P10721)
T38 construct: purchased DiscoverX
T38 sequence (P10721 26-976): as the sequence (P10721 26-976 V559D/T670I) above, with D534V, I645T counted along it
Source text: as §1, §2, §3, §4, §5, §6, §7, §8

SMILES: O=c1c2cc(-c3ccnc4ccccc34)ccc2ncn1-c1ccc(N2CCOCC2)cc1 [compound 16, 3-(4-Morpholinophenyl)-6-(quinolin-4-yl)quinazolin-4(3H)-one]
- remaining binding at 1 µM [1]: 100%
- remaining binding at 1 µM (PDGFRB): 20%
- remaining binding at 1 µM (ABL2): 97%
- remaining binding at 1 µM (AXL): 96%
- remaining binding at 1 µM (CSNK1D): 68%
- remaining binding at 1 µM (MKNK1): 92%
- remaining binding at 1 µM (PLK4): 100%
- remaining binding at 1 µM (BTK): 99%
- remaining binding at 1 µM (NEK6): 100%
- remaining binding at 1 µM (YANK3): 86%
- remaining binding at 1 µM (ERBB2): 100%
- remaining binding at 1 µM (KIT(V559D,T670I)): 100%
- remaining binding at 1 µM (CDK9): 94%
- remaining binding at 1 µM (FAK): 97%
- remaining binding at 1 µM (MAPKAPK2): 96%
- remaining binding at 1 µM (TIE2): 99%
- remaining binding at 1 µM (PLK1): 86%
- remaining binding at 1 µM (AKT1): 94%
- remaining binding at 1 µM (PIM2): 89%
- remaining binding at 1 µM (DYRK1B): 90%
- remaining binding at 1 µM (SRPK3): 79%
- remaining binding at 1 µM (FYN): 100%
- remaining binding at 1 µM (ZAP70): 100%
- remaining binding at 1 µM (GSK3B): 95%
- remaining binding at 1 µM (PKACEalpha): 89%
- remaining binding at 1 µM (AURKA): 100%
- remaining binding at 1 µM (ERBB4): 100%
- remaining binding at 1 µM (SIK2): 96%
- remaining binding at 1 µM (ERK1): 97%
- remaining binding at 1 µM (PRKCE): 92%
- remaining binding at 1 µM (PDPK1): 84%
- remaining binding at 1 µM (ABL1(E255K)EP): 84%
- remaining binding at 1 µM (LCK): 98%
- remaining binding at 1 µM (JAK3(JH1domain)): 98%
- remaining binding at 1 µM (TGFBR1 (ALK5)): 96%
- remaining binding at 1 µM (MINK): 51%
- remaining binding at 1 µM (CDK7): 97%
- remaining binding at 1 µM (KIT): 1.8%
